From PubChem BioAssay (NCI)
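Cells were grown in 96-well plates and exposed to each compound for 48 hours at five concentrations; endpoints were interpolated linearly between bracketing concentrations, or set to the highest concentration if not reached. The concentration for 50% growth inhibition is given as GI50. TGI: total growth inhibition.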

Assays:
Experiment in all cases: NCI tumour cell line growth inhibition, 48 h
SF-539 CNS = test system: SF-539 CNS
HS 578T breast = test system: HS 578T breast
SNB-19 CNS = test system: SNB-19 CNS
U251 CNS = test system: U251 CNS
UACC-257 melanoma = test system: UACC-257 melanoma
TK-10 renal = test system: TK-10 renal
A498 renal = test system: A498 renal
MALME-3M melanoma = test system: MALME-3M melanoma
RXF 393 renal = test system: RXF 393 renal
IGROV1 ovarian = test system: IGROV1 ovarian
EKVX NSCLC = test system: EKVX NSCLC
DU-145 prostate = test system: DU-145 prostate
SR leukemia = test system: SR leukemia
SW-620 colon = test system: SW-620 colon
HCC-2998 colon = test system: HCC-2998 colon
SF-268 CNS = test system: SF-268 CNS
ACHN renal = test system: ACHN renal
LOX IMVI melanoma = test system: LOX IMVI melanoma
HCT-116 colon = test system: HCT-116 colon
UO-31 renal = test system: UO-31 renal
SNB-75 CNS = test system: SNB-75 CNS
PC-3 prostate = test system: PC-3 prostate
NCI-H23 lung = test system: NCI-H23 lung
SF-295 CNS = test system: SF-295 CNS
CAKI-1 renal = test system: CAKI-1 renal
NCI-H226 lung = test system: NCI-H226 lung
OVCAR-5 ovarian = test system: OVCAR-5 ovarian
OVCAR-4 ovarian = test system: OVCAR-4 ovarian
UACC-62 melanoma = test system: UACC-62 melanoma
MDA-MB-231 breast = test system: MDA-MB-231 breast
HOP-92 NSCLC = test system: HOP-92 NSCLC
HCT-15 colon = test system: HCT-15 colon
NCI-H522 lung = test system: NCI-H522 lung
MCF7 breast = test system: MCF7 breast
HOP-62 NSCLC = test system: HOP-62 NSCLC
SK-MEL-2 melanoma = test system: SK-MEL-2 melanoma
T-47D breast = test system: T-47D breast
A549 NSCLC = test system: A549 NSCLC
SK-OV-3 ovarian = test system: SK-OV-3 ovarian
NCI/ADR-RES ovarian = test system: NCI/ADR-RES ovarian
BT-549 breast = test system: BT-549 breast
NCI-H460 lung = test system: NCI-H460 lung
SN12C renal = test system: SN12C renal
OVCAR-8 ovarian = test system: OVCAR-8 ovarian
786-0 renal = test system: 786-0 renal
OVCAR-3 ovarian = test system: OVCAR-3 ovarian
KM12 colon = test system: KM12 colon
MOLT-4 leukemia = test system: MOLT-4 leukemia
HT29 colon = test system: HT29 colon
K-562 leukemia = test system: K-562 leukemia
SK-MEL-28 melanoma = test system: SK-MEL-28 melanoma
COLO 205 colon = test system: COLO 205 colon
RPMI-8226 leukemia = test system: RPMI-8226 leukemia
SK-MEL-5 melanoma = test system: SK-MEL-5 melanoma
M14 melanoma = test system: M14 melanoma
MDA-MB-435 = test system: MDA-MB-435
HL-60(TB) leukemia = test system: HL-60(TB) leukemia

## O=S(=O)(NCCNc1nccc(-c2c(-c3ccc(F)c(O)c3)nc3sccn23)n1)c1ccc(Cl)cc1
SF-539 CNS
  GI50: 5.09 µM
  TGI: 11.9 µM
HS 578T breast
  GI50: 1.26 µM
  TGI: 13.3 µM
SNB-19 CNS
  GI50: 3.35 µM
  TGI: 11.3 µM
U251 CNS
  GI50: 3.81 µM
  TGI: 16 µM
UACC-257 melanoma
  GI50: 2.53 µM
  TGI: > 50 µM
TK-10 renal
  GI50: 5.16 µM
  TGI: 34.6 µM
A498 renal
  GI50: 1.63 µM
  TGI: 11.7 µM
MALME-3M melanoma
  GI50: 1.69 µM
  TGI: 22.7 µM
RXF 393 renal
  GI50: 0.651 µM
  TGI: 4.7 µM
IGROV1 ovarian
  GI50: 1.45 µM
  TGI: > 50 µM
EKVX NSCLC
  GI50: 2.19 µM
  TGI: > 50 µM
DU-145 prostate
  GI50: 2.9 µM
  TGI: > 50 µM
SR leukemia
  GI50: 1.87 µM
  TGI: > 50 µM
SW-620 colon
  GI50: > 50 µM
  TGI: > 50 µM
HCC-2998 colon
  GI50: 2.93 µM
  TGI: > 50 µM
SF-268 CNS
  GI50: 1.8 µM
  TGI: 13.4 µM
ACHN renal
  GI50: 1.4 µM
  TGI: > 50 µM
LOX IMVI melanoma
  GI50: 1.78 µM
  TGI: > 50 µM
HCT-116 colon
  GI50: 1.54 µM
  TGI: > 50 µM
UO-31 renal
  GI50: 0.94 µM
  TGI: > 50 µM
SNB-75 CNS
  GI50: 1.13 µM
  TGI: 9.31 µM
PC-3 prostate
  GI50: 1.14 µM
  TGI: > 50 µM
NCI-H23 lung
  GI50: 3.56 µM
  TGI: 12.2 µM
SF-295 CNS
  GI50: 2.35 µM
  TGI: 14.2 µM
CAKI-1 renal
  GI50: 1.99 µM
  TGI: 10.4 µM
NCI-H226 lung
  GI50: 1.8 µM
  TGI: 18.4 µM
OVCAR-5 ovarian
  GI50: 7.31 µM
  TGI: > 50 µM
OVCAR-4 ovarian
  GI50: 2.79 µM
  TGI: > 50 µM
UACC-62 melanoma
  GI50: 0.967 µM
  TGI: 13 µM
MDA-MB-231 breast
  GI50: 2.98 µM
  TGI: 24.1 µM
HOP-92 NSCLC
  GI50: 2.39 µM
  TGI: 13.8 µM
HCT-15 colon
  GI50: 1.67 µM
  TGI: > 50 µM
NCI-H522 lung
  GI50: 2.08 µM
  TGI: 18.6 µM
MCF7 breast
  GI50: 1.52 µM
  TGI: > 50 µM
HOP-62 NSCLC
  GI50: 6.17 µM
  TGI: 21.5 µM
SK-MEL-2 melanoma
  GI50: 1.64 µM
  TGI: 7.99 µM
T-47D breast
  GI50: 1.08 µM
  TGI: 8.28 µM
A549 NSCLC
  GI50: 1.69 µM
  TGI: > 50 µM
SK-OV-3 ovarian
  GI50: 2.8 µM
  TGI: 15.9 µM
NCI/ADR-RES ovarian
  GI50: 1.79 µM
  TGI: 17.5 µM
BT-549 breast
  GI50: 1.65 µM
  TGI: 14 µM
NCI-H460 lung
  GI50: 1.93 µM
  TGI: > 50 µM
SN12C renal
  GI50: 1.54 µM
  TGI: > 50 µM
OVCAR-8 ovarian
  GI50: 2.18 µM
  TGI: 36.7 µM
786-0 renal
  GI50: 3.38 µM
  TGI: 13.6 µM
OVCAR-3 ovarian
  GI50: 2.56 µM
  TGI: 14.9 µM

## Cc1ccc(S(=O)(=O)NC(=O)Nc2cccc(S(N)(=O)=O)c2)cc1
KM12 colon
  TGI: > 100 µM
SF-539 CNS
  TGI: > 100 µM
HS 578T breast
  TGI: > 100 µM
SNB-19 CNS
  TGI: > 100 µM
MOLT-4 leukemia
  TGI: > 100 µM
HT29 colon
  TGI: > 100 µM
U251 CNS
  TGI: > 100 µM
TK-10 renal
  TGI: > 100 µM
K-562 leukemia
  TGI: > 100 µM
A498 renal
  TGI: > 100 µM
SK-MEL-28 melanoma
  TGI: > 100 µM
COLO 205 colon
  TGI: > 100 µM
MALME-3M melanoma
  TGI: > 100 µM
RXF 393 renal
  TGI: > 100 µM
IGROV1 ovarian
  TGI: > 100 µM
EKVX NSCLC
  TGI: > 100 µM
RPMI-8226 leukemia
  TGI: > 100 µM
DU-145 prostate
  TGI: > 100 µM
SR leukemia
  TGI: > 100 µM
SW-620 colon
  TGI: > 100 µM
HCC-2998 colon
  TGI: > 100 µM
SF-268 CNS
  TGI: > 100 µM
ACHN renal
  TGI: > 100 µM
LOX IMVI melanoma
  TGI: > 100 µM
HCT-116 colon
  TGI: > 100 µM
UO-31 renal
  TGI: > 100 µM
SNB-75 CNS
  TGI: > 100 µM
SK-MEL-5 melanoma
  TGI: > 100 µM
PC-3 prostate
  TGI: > 100 µM
NCI-H23 lung
  TGI: > 100 µM
SF-295 CNS
  TGI: > 100 µM
CAKI-1 renal
  TGI: > 100 µM
NCI-H226 lung
  TGI: > 100 µM
OVCAR-5 ovarian
  TGI: > 100 µM
OVCAR-4 ovarian
  TGI: > 100 µM
UACC-62 melanoma
  TGI: > 100 µM
MDA-MB-231 breast
  TGI: > 100 µM
HOP-92 NSCLC
  TGI: > 100 µM
M14 melanoma
  TGI: > 100 µM
HCT-15 colon
  TGI: > 100 µM
NCI-H522 lung
  TGI: > 100 µM
MCF7 breast
  TGI: > 100 µM
HOP-62 NSCLC
  TGI: > 100 µM
MDA-MB-435
  TGI: > 100 µM
SK-MEL-2 melanoma
  TGI: > 100 µM
T-47D breast
  TGI: > 100 µM
HL-60(TB) leukemia
  TGI: > 100 µM
A549 NSCLC
  TGI: > 100 µM
SK-OV-3 ovarian
  TGI: > 100 µM
NCI/ADR-RES ovarian
  TGI: > 100 µM
NCI-H460 lung
  TGI: > 100 µM
786-0 renal
  TGI: > 100 µM
OVCAR-3 ovarian
  TGI: > 100 µM
